Data taken from patent US8859530B2, “Co-administration of steroids and zoledronic acid to prevent and treat osteoarthritis” (Voltarra Pharmaceuticals, Inc., priority 2013, dated 2014).

Key:
arthritis pain = settings: cited from earlier work
patients = settings: Zometa Prescribing Information; cited from earlier work
[1] = system: patients with osteoporosis; experiment: Zoledronic Acid alone or with prednisone (ZP), single infusion in osteoporosis patients: post-dosing syndrome; type: in vivo, human; settings: four patients per arm
Protocol: Eight patients with osteoporosis were treated with a single infusion of Zoledronic Acid alone (four patients) or with a single infusion of the combination of prednisone and Zoledronic Acid (ZP, four patients).

[2] = system: subjects with osteoarthritis; experiment: Joint pain (VAS scale) in the osteoarthritis subjects of the first study; type: in vivo, human; settings: six months after the single infusion (one ZP subject up to one year); three ZP, two Zoledronic Acid subjects with osteoarthritis
Protocol: Of the 8 subjects, five had osteoarthritis. Of these five, three were treated with ZP and two with Zoledronic Acid.

[3] = in vivo; cited from earlier work
[4] = system: subjects with knee osteoarthritis; experiment: Single blind, single center study of intravenous ZP or ZA in knee osteoarthritis; type: in vivo, human
Protocol: In a further study, this one, a single blind, single center study, 20 subjects with knee osteoarthritis were randomized to either intravenous ZP or ZA in a 1:1 ratio. Subjects were followed for six months. Efficacy was measured by change in pain in 100 mm visual analogue score (VAS) from baseline (mean values). Patients were asked about the level of pain without taking rescue medications (NSAIDS or tramadol). Bone mineral density (BMD) was determined at baseline and six months to detect any effect on bone.

Compound	effect on arthritis pain (arthritis pain; IV, by itself)	duration of effect (arthritis pain; in vivo)	patients affected by post-dosing syndrome (PDS) (patients) [%]	patients suffering from post-dosing syndrome (PDS) [1]	change in joint pain (VAS scale) [2]	half-life (t1/2α) [3]	ΔBMD ([4]; bone mineral density, baseline versus six months)	Δ Mean VAS ([4]; change in pain in 100 mm visual analogue score from baseline (mean values), six months follow-up, without rescue medications) [mm]	PDS (# reporting/total) ([4]; intravenous, 10 subjects per cohort, knee osteoarthritis)
C[C@]12C=CC(=O)C=C1CC[C@@H]1[C@@H]2[C@@H](O)C[C@@]2(C)[C@H]1CC[C@]2(O)C(=O)CO [Prednisolone]	no effect on arthritis pain	transient, less than a day	–	–	–	–	–	–	–
O=P(O)(O)C(O)(Cn1ccnc1)P(=O)(O)O [Zoledronic Acid]	–	–	≤ 44	All four	same (one) or worse (one) level of pain	about 0.24 hours	0	−10	6/10
